Test results: the supplement of paper PMC10307832

Assays:
Test in all cases: relative viability (nuclei count vs DMSO), 5 days (fraction); higher = more cells survive
[1] = compound: Nc1ccccc1NC(=O)c1ccc(CNC(=O)OCc2cccnc2)cc1 [Entinostat] + CC(C)C[C@H](NC(=O)[C@H](Cc1ccccc1)NC(=O)c1cnccn1)B(O)O [Bortezomib] (partner 0.002 µM)
In short: (§1)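 Dosing by pin tool came one day after lung cancer cell lines were seeded in 1536-well plates, using either one drug or a fixed anchor-drug dose plus five library-drug doses (not always all listed) in √10 steps. After 5 days, nuclei were counted on 4× images. Relative viability is treated-well nuclei count divided by vehicle-well nuclei count, and values are medians of duplicate plates.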

[2] = compound: C1COCCN1C2=NC(=NC3=C2OC4=C3C=CC=N4)C5=CC(=CC=C5)NC(=O)C6=CN=C(C=C6)N + COc1cccc2cc(-c3nc([C@H]4CC[C@H](C(=O)O)CC4)n4ncnc(N)c34)[nH]c12 [OSI-027] (partner 0.5 µM)
In short: as §1

[3] = compound: C1COCCN1C2=NC(=NC3=C2OC4=C3C=CC=N4)C5=CC(=CC=C5)NC(=O)C6=CN=C(C=C6)N + N=C(N)NC(=N)NCCc1ccccc1 [Phenformin] (partner 250 µM)
In short: as §1

[4] = compound: CN1CCC(CNc2ccc3ncc(-c4cccc(OC(F)(F)F)c4)n3n2)CC1 [SGI-1776] + CC(C)C[C@H](NC(=O)[C@H](Cc1ccccc1)NC(=O)c1cnccn1)B(O)O [Bortezomib] (partner 0.002 µM)
In short: as §1

Cell Line | relative viability ([1]; first compound 0.02 µM) | relative viability ([1]; first compound 0.06325 µM) | relative viability ([1]; first compound 0.2 µM) | relative viability ([1]; first compound 0.6325 µM) | relative viability ([1]; first compound 2 µM) | relative viability ([2]; first compound 0.02 µM) | relative viability ([2]; first compound 0.06325 µM) | relative viability ([2]; first compound 0.2 µM) | relative viability ([2]; first compound 0.6325 µM) | relative viability ([2]; first compound 2 µM) | relative viability ([3]; first compound 0.02 µM) | relative viability ([3]; first compound 0.06325 µM) | relative viability ([3]; first compound 0.2 µM) | relative viability ([3]; first compound 0.6325 µM) | relative viability ([3]; first compound 2 µM) | relative viability ([4]; first compound 0.08 µM) | relative viability ([4]; first compound 0.8 µM) | relative viability ([4]; first compound 2.53 µM) | relative viability ([4]; first compound 8 µM)
201T | 1.09 | 1.11 | 1.05 | 1.01 | 0.872 | 0.858 | 0.743 | 0.72 | 0.515 | 0.851 | 0.452 | 0.448 | 0.443 | 0.428 | 0.33 | 1.09 | 1.08 | 1.11 | 0.986
A549 |  |  |  |  |  |  |  |  |  |  |  | 0.159 | 0.142 | 0.206 | 0.063 |  |  |  | 
A-427 | 0.99 | 0.975 | 0.966 | 0.916 | 0.632 | 0.407 | 0.416 | 0.469 | 0.399 | 0.394 | 0.397 | 0.359 | 0.275 | 0.245 | 0.292 | 1.04 | 1.03 | 0.931 | 0.749
ABC-1 | 0.338 | 0.327 | 0.331 | 0.216 | 0.277 | 0.462 | 0.451 | 0.461 | 0.368 | 0.407 | 0.225 | 0.242 | 0.241 | 0.235 | 0.207 | 0.299 | 0.323 | 0.364 | 0.241
BEN | 0.96 | 0.797 | 0.741 | 0.577 | 0.247 | 0.283 | 0.297 | 0.295 | 0.274 | 0.389 | 0.278 | 0.263 | 0.269 | 0.253 | 0.318 | 0.909 | 0.918 | 0.754 | 0.624
CAL-12T | 1.19 | 0.973 | 0.96 | 0.99 | 0.665 | 0.579 | 0.583 | 0.446 | 0.477 | 0.323 | 0.525 | 0.561 | 0.533 | 0.498 | 0.247 | 1.35 | 0.982 | 0.918 | 0.867
COR-L23 | 0.994 | 0.881 | 0.964 | 0.423 | 0.147 | 0.937 | 0.733 | 0.739 | 0.704 | 0.432 | 0.426 | 0.445 | 0.418 | 0.433 | 0.218 | 1.13 | 0.937 | 0.971 | 0.846
COR-L 105 | 0.608 | 0.914 | 0.926 | 0.484 | 0.313 | 0.623 | 0.645 | 0.576 | 0.556 | 0.414 | 0.402 | 0.517 | 0.404 | 0.41 | 0.274 | 0.929 | 0.833 | 0.587 | 0.282
Calu-6 | 1.02 | 1.02 | 0.944 | 0.69 | 0.504 |  |  |  |  |  |  |  |  |  |  | 0.954 | 1.06 | 0.954 | 0.658
ChaGo-K-1 | 1.41 | 1.02 | 1.09 | 0.94 | 0.623 | 0.529 | 0.566 | 0.523 | 0.586 | 0.466 | 0.464 | 0.583 | 0.533 | 0.456 | 0.459 | 0.982 | 1.22 | 0.644 | 0.785
EBC-1 | 0.564 | 0.599 | 0.293 | 0.196 | 0.176 |  |  |  |  |  |  |  |  |  |  | 0.6 | 0.548 | 0.514 | 0.304
EKVX | 1.1 | 0.992 | 0.999 | 0.853 | 0.445 | 0.626 | 0.484 | 0.888 | 0.673 | 0.558 | 0.223 | 0.21 | 0.207 | 0.216 | 0.181 | 0.98 | 1.05 | 1.14 | 0.972
EMC-BAC-2 | 1.11 | 1.16 | 1.1 | 0.898 | 0.516 | 0.346 | 0.406 | 0.333 | 0.346 | 0.32 | 0.543 | 0.56 | 0.451 | 0.469 | 0.304 | 1.06 | 1.01 | 1.1 | 1.04
EPLC-272H | 0.889 | 0.848 | 0.879 | 0.299 | 0.204 | 0.311 | 0.305 | 0.289 | 0.247 | 0.328 | 0.306 | 0.305 | 0.26 | 0.241 | 0.282 | 0.939 | 1.06 | 0.927 | 0.739
H3255 | 0.797 | 0.844 | 0.577 | 0.401 | 0.28 | 0.626 | 0.56 | 0.464 | 0.465 | 0.552 | 0.362 | 0.357 | 0.368 | 0.326 | 0.338 | 0.963 | 0.75 | 0.606 | 0.33
HARA | 1.13 | 1.1 | 1.11 | 1.04 | 0.465 | 0.52 | 0.609 | 0.381 | 0.391 | 0.283 | 0.413 | 0.586 | 0.487 | 0.431 | 0.363 | 1.2 | 1.21 | 1.01 | 1.05
HCC-15 | 1.02 | 0.945 | 0.876 | 0.403 | 0.413 | 0.709 | 0.702 | 0.644 | 0.506 | 0.456 | 0.546 | 0.528 | 0.462 | 0.388 | 0.25 | 1.03 | 1.03 | 1.02 | 0.886
HCC-44 | 0.861 | 0.758 | 0.698 | 0.373 | 0.269 | 0.458 | 0.567 | 0.39 | 0.391 | 0.419 | 0.182 | 0.191 | 0.137 | 0.157 | 0.171 | 0.942 | 0.908 | 0.98 | 0.895
HCC-78 | 0.551 | 0.389 | 0.27 | 0.217 | 0.213 | 0.409 | 0.389 | 0.369 | 0.407 | 0.329 | 0.716 | 0.654 | 0.761 | 0.681 | 0.642 | 0.48 | 0.516 | 0.516 | 0.45
